Experimental data reported in ChEMBL document CHEMBL3507680, “University of Dundee, Gates Library screen for HepG2 cell viability”.

Assay: Human HepG2 cell viability assay in 384 well format
Assay type: toxicity, cell-based
Design: dose 125 nL, time 70.5 hour; concentration not given beside the values
Conditions: HepG2 cells, read-out: Inhibition

| Structure (SMILES) | cytotoxicity at 70.5 h [%] |
| --- | --- |
| CSc1ccc(C(=O)C2CCCN(C(=O)CCCn3cncn3)C2)cc1 (stereo unspecified) | -6.96 |
| CCCc1ccc2oc(C(=O)N3CCN(CCC(N)=O)CC3)c(C)c2c1 | 19.5 |
| O=C(Nc1ccccc1N1CCOC1=O)N1CCSCC1 | 14.3 |
| COc1cccc2c(=O)n(C3CCNCC3)cnc12 | -18.3 |
| CCN(CC)Cc1cc(C(=O)N2CCCC(CC)(C(=O)O)C2)c(C)o1 (stereo unspecified) | -3.17 |
| Cc1ccc2ncn(C(C)Cn3cccn3)c(=O)c2c1 (stereo unspecified) | -5.52 |
| O=C(CCn1cncn1)N1C[C@H]2CC[C@@H]1CN(Cc1cccnc1)C2 | -9.48 |
| CCc1nnc(CN(C)C(=O)C(CC)n2c(CC)nc3ccccc32)o1 (stereo unspecified) | 3.98 |
| O=C1[C@@H]2C[C@H](O)CCN2C(=O)CN1CCSc1ccccn1 | 0.109 |
| C1=CCN(c2nc(CC3CC3)nc3c2CCN(C2CCOCC2)CC3)C1 | -1.95 |
| COc1cc(N2CCN(Cc3ccsc3)C(CCO)C2)nc(N)n1 (stereo unspecified) | 9.1 |
| CCNC(=O)[C@@H]1C[C@@H](N)CN1Cc1ccc2cccc(Cl)c2n1 | 20.1 |
| OCc1cn(CC2CCN(C3CCSC3)CC2)nn1 (stereo unspecified) | -8.28 |
| CCCOC(=O)N1CCc2cccc(S(=O)(=O)N3CCOCC3)c2C1 | -8.66 |
| CCCN1CCCn2nc(CNC(=O)CN(C)C3CCCC3)cc2C1 | -8 |
| Cc1nc(CC(=O)NCCN2CCC(c3ccccc3C)C2)cs1 (stereo unspecified) | -8.35 |
| O=C(O)C1(Oc2ccccc2F)CCN(C/C=C/c2ccco2)CC1 | -7.74 |
| NC(=O)c1csc(N2C[C@@H](CN3CCC(O)CC3)[C@@H](CO)C2)n1 | -6.31 |
| CN(Cc1cc(C2CC2)[nH]n1)Cc1cc2ccc(F)cc2[nH]c1=O | -12.6 |
| CN(C)CCN1CC(C(=O)NCc2cn3cccnc3n2)CC1=O (stereo unspecified) | -5.17 |
| CCc1ncc(C(=O)NCCN2CCNC2=O)cn1 | -5.68 |

| Structure (SMILES) | cytotoxicity at 70.5 h [%] |
| --- | --- |
| COCCN1CCN(Cc2ccc(C(C)=O)cc2)[C@H]2CS(=O)(=O)C[C@H]21 | -5.05 |
| Cc1ncc(S(C)(=O)=O)c(N2CCCN(Cc3ccccn3)CC2)n1 | -5.13 |
| CCC[C@@H]1CN(c2ncnc3ccsc23)C[C@H]1NS(C)(=O)=O | -8.21 |
| Fc1ccc(CC2CCN(Cc3nccs3)CC2)cc1 | -7.34 |
| CN(C)CCN1CC2(CCCN(c3ccc(Cl)cn3)C2)CCC1=O (stereo unspecified) | 3.01 |
| CN(C)C[C@H]1C[C@@H](CO)CN(C(=O)CCc2nc(Cl)n[nH]2)C1 | 4.5 |
| CSc1ccc(CN2CCn3nc(CNC(C)=O)cc3C2)cc1 | -28.8 |
| Cc1ccn(CCNc2ncnc3c2CCN(S(C)(=O)=O)CC3)n1 | 1.8 |
| CCCc1nnc(N2CCN(c3cccc(OC)c3)C(=O)C2)o1 | 15.6 |
| O=C(NCCCn1ccnn1)C1CCCN(C2CCCC2)C1 (stereo unspecified) | -1.79 |
| CSCCCN1CC[C@@]2(O)CCN(c3ncccn3)C[C@H]2C1 | -2.32 |
| CCC(Nc1ncccn1)c1cccnc1 (stereo unspecified) | 8.36 |
| CC(C)OC(=O)N1CCCC2(CCC(=O)N(CCc3c[nH]cn3)C2)C1 (stereo unspecified) | -1.99 |
| CN(CCO)C[C@@H]1CN(Cc2ccccc2C#N)C[C@@H]1CO | -3.5 |
| O=C(COc1ccccc1N1CCCC1)N1CCN[C@H]2CS(=O)(=O)C[C@H]21 | -7.17 |
| O=C(N1CCOCC1)N1CCC(Nc2ccncn2)CC1 | -7.28 |
| O=C(Nc1ccccc1OCCc1ccccn1)N1CCOCC(O)C1 (stereo unspecified) | -8.87 |
| CC(C)N1CCCC(C(=O)NCCc2csc(-c3ccncc3)n2)C1 (stereo unspecified) | 22 |
| COc1ccc(CCCC(=O)N2C[C@H](C3CC3)[C@@H](N(C)C)C2)cc1 | -9.86 |
| O=C(NCC(O)c1ccc(F)cc1)C1CCN(C2CCCCC2)CC1 (stereo unspecified) | -7.05 |
| CCCc1nncn1-c1cc(OC)ccc1OC | -1.39 |

| Structure (SMILES) | cytotoxicity at 70.5 h [%] |
| --- | --- |
| CCCn1cnnc1CNC1CCSC1 (stereo unspecified) | -7.63 |
| CCOc1ccc2[nH]c(=O)c(CN3CCCCC3C)cc2c1 (stereo unspecified) | -3.42 |
| CCc1ccc(S(=O)(=O)N2CC[C@@](O)(CCOC)[C@H](C)C2)cc1 | -10.2 |
| Cc1csc2ncnc(N3CCCC(Cn4cc(C(C)(C)O)nn4)C3)c12 (stereo unspecified) | -6.36 |
| O=C1CC2(CCN(Cc3ccc(C(F)(F)F)nc3)CC2)CN1 | 8.74 |
| C[C@@H]1CN(C(=O)c2c[nH]c(=O)c(Cl)c2)CC[C@@]1(O)C1CCOCC1 | -1.04 |
| CCC(CO)N(Cc1ccco1)Cc1c(C)nn(C)c1Cl (stereo unspecified) | 3.17 |
| CCc1cc(C(C)Nc2nc(-c3cccnc3)nc3c2CNC3)on1 (stereo unspecified) | -5.83 |
| OC1(CNCCc2csc(-c3cccnc3)n2)CCNC1 (stereo unspecified) | -14.2 |
| COc1ccc(OC2CCN(C(=O)C3CCCN(C)C3)CC2)cc1 (stereo unspecified) | -0.196 |
| Cn1c(N2CCOCC2)nc2cc(C(=O)N3CCC(O)(CO)C3)ccc21 (stereo unspecified) | -2.61 |
| CCn1c(N)nc2cc(C(=O)N3Cc4ccccc4C3)cnc21 | -4.1 |
| Cc1cc(C)c2c(N(C)CC3CCOC3)ncnc2n1 (stereo unspecified) | -4.45 |
| Cn1cccc1C(=O)N1CCC(c2nccn2Cc2ccncc2)CC1 | 25.5 |
| NCCc1cccc(CN2CCN(c3cccc(Cl)c3)C(=O)C2)c1 | -7.22 |
| Cc1c[nH]c(CN2CCCCC2CCN(C)C)c(C)c1=O (stereo unspecified) | -10.5 |
| O=C(c1ccc(C2CCCO2)s1)N1CCCOCC1 (stereo unspecified) | -8.57 |
| COCc1cn(CC2CCN(Cc3cc(C)[nH]n3)CC2)nn1 | 20 |
| NS(=O)(=O)CCCC(=O)N1CCC2(CC1)c1ccccc1CC2O (stereo unspecified) | -4.4 |
| Cc1cc(CN2CCCC(CNC(=O)Cn3cccn3)C2)oc1C (stereo unspecified) | -6.83 |
| COc1ccccc1[C@@H]1CN(CC2CCC2)C[C@H]1C(=O)O | -5.88 |

| Structure (SMILES) | cytotoxicity at 70.5 h [%] |
| --- | --- |
| Cc1cc(C)n(CC(C)Nc2ncnc3c2CCNC3)n1 (stereo unspecified) | -11.9 |
| Oc1cc(CNCCCN2CCCC2)nc2ccc(F)cc12 | 12.5 |
| Clc1ccccc1OC1CCN(CC2CCOC2)CC1 (stereo unspecified) | 3.25 |
| Oc1cc(CCC2CCCCN2)cc(-c2cccnc2)c1 (stereo unspecified) | -0.0954 |
| O=C(c1ccc(S(=O)(=O)NCC(F)F)cc1)N1CC[C@H]2CNC[C@H]21 | 0.673 |
| Cc1nnsc1C(=O)N1CCCC(c2nccn2Cc2cscn2)C1 (stereo unspecified) | -0.672 |
| CN1C[C@@H]2CC[C@H](CC1=O)N2C(=O)c1cc2ccccc2[nH]c1=O | -6.85 |
| CC(C)Oc1cc(N2CCN(Cc3ccsc3)C(CCO)C2)nc(N)n1 (stereo unspecified) | -17 |
| Cc1nn(C)c(C)c1CN(C(=O)c1cc(Cl)c[nH]c1=O)C(C)C | -11 |
| Cn1ccnc1-c1nccn1-c1cccc(CN2CCCC2)c1 | 2.21 |
| O=S(=O)(Cc1ccccc1CN1CC[C@H](CO)[C@H](O)C1)c1ccccc1 | -7.73 |
| COc1cc(F)ccc1-c1cc(CO)ccn1 | -8.15 |
| Cc1nc[nH]c1CN1CCC(CNC(=O)c2cccc3cnccc23)C1 (stereo unspecified) | -7.78 |
| Cc1ncc2c(c1CNC(=O)C1(C)CC1)CCNC2 | -7.68 |
| Nc1nc2c(c(NCc3ccc(C(=O)N4CCCC4)cc3)n1)CCCC2 | 2.85 |
| NC(=O)CCNC(=O)C1(N2CCCCC2)Cc2ccccc2C1 | 9.16 |
| Cc1ccc(-c2ccnc(NC(C)c3c(C)n[nH]c3C)n2)c(C)n1 (stereo unspecified) | -8.64 |
| CCOCC(=O)NC(C)c1cc(C)ccc1C (stereo unspecified) | 12.7 |
